Laboratory results published in ChEMBL document CHEMBL1154397, “Synthesis and SAR of 4-substituted-2-aminopyrimidines as novel c-Jun N-terminal kinase (JNK) inhibitors” (Bioorg Med Chem Lett, 2009).

Experiments:
[1] = biological target: Voltage-gated inwardly rectifying potassium channel KCNH2 (Homo sapiens, UniProt Q12809); assay: Binding affinity to human ERG
[2] = biological target: Mitogen-activated protein kinase 8 (Homo sapiens, UniProt P45983); assay: Inhibition of JNK1
[3] = test system: Liver microsomes; assay: Metabolic stability in human liver microsomes assessed as clearance; assay type: ADME, Microsome
[4] = biological target: c-Jun N-terminal kinase, JNK (Homo sapiens, UniProt P45983+P53779+P45984); assay: Inhibition of TNF-alpha-induced phosphorylation of […] in human HepG2 cells; assay type: cell-based
[5] = Lipophilicity, log D of the compound; assay type: physicochemical; details: octanol/water
[6] = Selectivity ratio of IC50 for p38MAPKgamma to IC50 for JNK1
[7] = Selectivity ratio of IC50 for p38MAPKbeta to IC50 for JNK1
[8] = Metabolic stability in rat liver microsomes assessed as clearance; assay type: ADME, Microsome
[9] = biological target: Mitogen-activated protein kinase 11 (Homo sapiens) (UniProt Q15759); assay: Inhibition of SAPK2b
[10] = biological target: Inhibitor of nuclear factor kappa-B kinase subunit beta (Homo sapiens, UniProt O14920); assay: Inhibition of IKKb
[11] = biological target: 5'-AMP-activated protein kinase catalytic subunit alpha-2 (Homo sapiens, UniProt P54646); assay: Inhibition of AMPK
[12] = biological target: Mitogen-activated protein kinase 14 (Homo sapiens, UniProt Q16539); assay: Inhibition of SAPK2a
[13] = biological target: Cyclin-dependent kinase 2 (Homo sapiens, UniProt P24941); assay: Inhibition of CDK2/cyclinA
[14] = biological target: Insulin receptor (Homo sapiens, UniProt P06213); assay: Inhibition of IR
Chain of Insulin receptor (P06213 28-758 limits assumed): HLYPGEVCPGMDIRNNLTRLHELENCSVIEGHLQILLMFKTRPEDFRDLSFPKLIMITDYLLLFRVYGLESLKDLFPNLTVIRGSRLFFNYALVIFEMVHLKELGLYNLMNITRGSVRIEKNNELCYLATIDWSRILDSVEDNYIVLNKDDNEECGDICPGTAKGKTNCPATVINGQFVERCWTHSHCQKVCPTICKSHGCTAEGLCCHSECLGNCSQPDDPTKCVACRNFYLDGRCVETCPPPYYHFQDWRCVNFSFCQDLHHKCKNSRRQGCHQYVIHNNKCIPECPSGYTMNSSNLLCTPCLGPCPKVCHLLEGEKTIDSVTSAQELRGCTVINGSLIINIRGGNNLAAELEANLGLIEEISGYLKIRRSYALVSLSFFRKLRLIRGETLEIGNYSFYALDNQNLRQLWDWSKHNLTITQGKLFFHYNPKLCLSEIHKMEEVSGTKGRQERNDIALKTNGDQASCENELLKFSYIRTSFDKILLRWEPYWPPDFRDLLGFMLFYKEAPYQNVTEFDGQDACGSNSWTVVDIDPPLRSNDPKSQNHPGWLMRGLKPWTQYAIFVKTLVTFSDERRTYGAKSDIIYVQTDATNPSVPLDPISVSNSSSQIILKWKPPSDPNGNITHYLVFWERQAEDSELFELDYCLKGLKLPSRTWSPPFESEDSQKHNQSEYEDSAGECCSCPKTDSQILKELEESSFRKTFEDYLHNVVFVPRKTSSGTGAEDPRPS
Chain of Insulin receptor (P06213 763-1382 limits assumed): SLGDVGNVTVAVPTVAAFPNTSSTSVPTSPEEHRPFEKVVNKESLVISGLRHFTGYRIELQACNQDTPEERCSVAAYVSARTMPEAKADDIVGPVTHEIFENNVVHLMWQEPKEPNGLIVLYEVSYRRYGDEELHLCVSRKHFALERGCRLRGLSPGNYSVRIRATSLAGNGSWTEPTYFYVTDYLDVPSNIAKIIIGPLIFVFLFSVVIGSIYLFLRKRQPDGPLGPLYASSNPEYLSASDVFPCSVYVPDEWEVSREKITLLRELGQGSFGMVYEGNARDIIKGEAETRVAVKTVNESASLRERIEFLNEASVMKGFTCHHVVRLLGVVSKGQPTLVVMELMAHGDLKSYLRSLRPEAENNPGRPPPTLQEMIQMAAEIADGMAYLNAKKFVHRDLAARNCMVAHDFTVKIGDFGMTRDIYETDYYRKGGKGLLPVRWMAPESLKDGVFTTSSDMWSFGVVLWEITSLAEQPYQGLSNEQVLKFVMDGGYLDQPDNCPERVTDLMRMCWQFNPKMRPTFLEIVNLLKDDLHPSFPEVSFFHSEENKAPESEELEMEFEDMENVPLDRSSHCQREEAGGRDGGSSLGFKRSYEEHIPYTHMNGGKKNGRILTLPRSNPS

[15] = biological target: Ribosomal protein S6 kinase beta-1 (Homo sapiens, UniProt P23443); assay: Inhibition of P70s6K
[16] = biological target: Mitogen-activated protein kinase 13 (Homo sapiens, UniProt O15264); assay: Inhibition of SPAK4
[17] = biological target: Glycogen synthase kinase-3 beta (Homo sapiens, UniProt P49841); assay: Inhibition of GSK3-beta
[18] = biological target: Dual specificity mitogen-activated protein kinase kinase 7 (Homo sapiens, UniProt O14733); assay: Inhibition of MKK7beta
[19] = biological target: Dual specificity mitogen-activated protein kinase kinase 4 (Homo sapiens, UniProt P45985); assay: Inhibition of MKK4
[20] = biological target: Dual specificity mitogen-activated protein kinase kinase 1 (Homo sapiens, UniProt Q02750); assay: Inhibition of MEK1
[21] = biological target: Mitogen-activated protein kinase 12 (Homo sapiens, UniProt P53778); assay: Inhibition of SAPK3
Chain of Mitogen-activated protein kinase 12 (P53778 whole entry): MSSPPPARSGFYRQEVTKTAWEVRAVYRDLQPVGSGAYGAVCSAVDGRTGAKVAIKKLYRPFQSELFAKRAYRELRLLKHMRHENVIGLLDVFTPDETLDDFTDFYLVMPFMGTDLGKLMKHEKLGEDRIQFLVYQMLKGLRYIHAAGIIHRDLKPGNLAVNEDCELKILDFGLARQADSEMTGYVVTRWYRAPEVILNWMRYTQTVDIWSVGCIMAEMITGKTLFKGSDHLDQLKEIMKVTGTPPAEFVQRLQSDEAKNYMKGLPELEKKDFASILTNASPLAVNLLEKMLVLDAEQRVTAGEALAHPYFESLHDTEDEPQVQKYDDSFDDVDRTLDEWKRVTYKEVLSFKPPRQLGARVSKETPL

[22] = biological target: Protein kinase C theta type (Homo sapiens, UniProt Q04759); assay: Inhibition of PKCtheta
Chain of Protein kinase C theta type (Q04759 whole entry): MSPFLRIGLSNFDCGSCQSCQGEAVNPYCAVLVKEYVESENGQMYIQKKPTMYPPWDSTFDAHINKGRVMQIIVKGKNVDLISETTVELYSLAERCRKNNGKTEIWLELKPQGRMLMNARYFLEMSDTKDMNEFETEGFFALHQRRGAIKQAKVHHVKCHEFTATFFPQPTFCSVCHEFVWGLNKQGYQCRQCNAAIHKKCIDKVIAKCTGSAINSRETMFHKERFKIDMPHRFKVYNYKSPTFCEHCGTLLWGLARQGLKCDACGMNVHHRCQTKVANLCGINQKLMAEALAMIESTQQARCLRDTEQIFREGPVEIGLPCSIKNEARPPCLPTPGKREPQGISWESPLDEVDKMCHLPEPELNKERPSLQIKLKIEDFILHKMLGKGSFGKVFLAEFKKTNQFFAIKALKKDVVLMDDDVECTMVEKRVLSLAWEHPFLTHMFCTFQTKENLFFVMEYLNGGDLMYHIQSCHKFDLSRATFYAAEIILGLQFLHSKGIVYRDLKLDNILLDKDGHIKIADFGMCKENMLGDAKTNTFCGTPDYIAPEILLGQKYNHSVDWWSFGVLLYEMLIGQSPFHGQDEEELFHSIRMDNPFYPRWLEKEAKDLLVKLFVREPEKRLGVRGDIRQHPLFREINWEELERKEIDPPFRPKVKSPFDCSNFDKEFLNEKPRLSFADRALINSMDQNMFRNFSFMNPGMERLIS

[23] = biological target: Mitogen-activated protein kinase 10 (Homo sapiens, UniProt P53779); assay: Inhibition of JNK3
[24] = biological target: Dual specificity mitogen-activated protein kinase kinase 6 (Homo sapiens, UniProt P52564); assay: Inhibition of MKK6
Chain of Dual specificity mitogen-activated protein kinase kinase 6 (P52564 whole entry): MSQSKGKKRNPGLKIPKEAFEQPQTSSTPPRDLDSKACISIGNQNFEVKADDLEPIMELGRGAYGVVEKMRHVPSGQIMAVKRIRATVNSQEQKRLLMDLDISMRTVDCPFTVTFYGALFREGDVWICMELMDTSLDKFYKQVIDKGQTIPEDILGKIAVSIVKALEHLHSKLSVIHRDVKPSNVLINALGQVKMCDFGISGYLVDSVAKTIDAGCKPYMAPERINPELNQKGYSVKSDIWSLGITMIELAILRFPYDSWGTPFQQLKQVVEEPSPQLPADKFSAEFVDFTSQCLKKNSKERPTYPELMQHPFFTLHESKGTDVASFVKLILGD

[25] = biological target: MAP kinase-activated protein kinase 2 (Homo sapiens, UniProt P49137); assay: Inhibition of MAPKAP-K2
[26] = biological target: Mitogen-activated protein kinase 9 (Homo sapiens, UniProt P45984); assay: Inhibition of to JNK2
Chain of Mitogen-activated protein kinase 9 (P45984 whole entry): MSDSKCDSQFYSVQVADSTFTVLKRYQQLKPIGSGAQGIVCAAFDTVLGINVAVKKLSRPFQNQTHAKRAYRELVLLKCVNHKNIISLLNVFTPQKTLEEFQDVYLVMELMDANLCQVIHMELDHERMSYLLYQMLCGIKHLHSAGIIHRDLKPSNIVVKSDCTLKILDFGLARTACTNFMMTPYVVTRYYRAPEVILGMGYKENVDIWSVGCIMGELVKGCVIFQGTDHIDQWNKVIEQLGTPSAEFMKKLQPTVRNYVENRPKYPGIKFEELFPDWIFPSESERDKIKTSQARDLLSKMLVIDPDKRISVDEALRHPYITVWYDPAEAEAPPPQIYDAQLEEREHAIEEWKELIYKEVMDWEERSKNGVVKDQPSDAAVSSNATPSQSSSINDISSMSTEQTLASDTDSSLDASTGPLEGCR

[27] = Permeability from basolateral to apical side of human Caco-2 cells; assay type: ADME, cell-based; details: read-out: permeability
[28] = Permeability from apical to basolateral side of human Caco-2 cells; assay type: ADME, cell-based; details: read-out: permeability

Chain of Mitogen-activated protein kinase 8 (P45983 whole entry): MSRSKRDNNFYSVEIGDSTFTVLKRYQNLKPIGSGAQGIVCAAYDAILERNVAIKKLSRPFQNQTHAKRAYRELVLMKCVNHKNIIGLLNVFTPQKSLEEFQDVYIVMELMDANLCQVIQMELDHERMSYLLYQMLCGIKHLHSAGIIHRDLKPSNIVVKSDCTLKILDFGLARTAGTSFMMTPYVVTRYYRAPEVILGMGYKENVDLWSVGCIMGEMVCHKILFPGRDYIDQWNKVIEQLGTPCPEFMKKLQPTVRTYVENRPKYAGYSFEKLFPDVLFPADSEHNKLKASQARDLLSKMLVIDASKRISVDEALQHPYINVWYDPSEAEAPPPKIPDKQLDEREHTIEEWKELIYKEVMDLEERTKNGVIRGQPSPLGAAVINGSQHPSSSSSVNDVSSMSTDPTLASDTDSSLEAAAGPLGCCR
Chain of Voltage-gated inwardly rectifying potassium channel KCNH2 (Q12809 whole entry): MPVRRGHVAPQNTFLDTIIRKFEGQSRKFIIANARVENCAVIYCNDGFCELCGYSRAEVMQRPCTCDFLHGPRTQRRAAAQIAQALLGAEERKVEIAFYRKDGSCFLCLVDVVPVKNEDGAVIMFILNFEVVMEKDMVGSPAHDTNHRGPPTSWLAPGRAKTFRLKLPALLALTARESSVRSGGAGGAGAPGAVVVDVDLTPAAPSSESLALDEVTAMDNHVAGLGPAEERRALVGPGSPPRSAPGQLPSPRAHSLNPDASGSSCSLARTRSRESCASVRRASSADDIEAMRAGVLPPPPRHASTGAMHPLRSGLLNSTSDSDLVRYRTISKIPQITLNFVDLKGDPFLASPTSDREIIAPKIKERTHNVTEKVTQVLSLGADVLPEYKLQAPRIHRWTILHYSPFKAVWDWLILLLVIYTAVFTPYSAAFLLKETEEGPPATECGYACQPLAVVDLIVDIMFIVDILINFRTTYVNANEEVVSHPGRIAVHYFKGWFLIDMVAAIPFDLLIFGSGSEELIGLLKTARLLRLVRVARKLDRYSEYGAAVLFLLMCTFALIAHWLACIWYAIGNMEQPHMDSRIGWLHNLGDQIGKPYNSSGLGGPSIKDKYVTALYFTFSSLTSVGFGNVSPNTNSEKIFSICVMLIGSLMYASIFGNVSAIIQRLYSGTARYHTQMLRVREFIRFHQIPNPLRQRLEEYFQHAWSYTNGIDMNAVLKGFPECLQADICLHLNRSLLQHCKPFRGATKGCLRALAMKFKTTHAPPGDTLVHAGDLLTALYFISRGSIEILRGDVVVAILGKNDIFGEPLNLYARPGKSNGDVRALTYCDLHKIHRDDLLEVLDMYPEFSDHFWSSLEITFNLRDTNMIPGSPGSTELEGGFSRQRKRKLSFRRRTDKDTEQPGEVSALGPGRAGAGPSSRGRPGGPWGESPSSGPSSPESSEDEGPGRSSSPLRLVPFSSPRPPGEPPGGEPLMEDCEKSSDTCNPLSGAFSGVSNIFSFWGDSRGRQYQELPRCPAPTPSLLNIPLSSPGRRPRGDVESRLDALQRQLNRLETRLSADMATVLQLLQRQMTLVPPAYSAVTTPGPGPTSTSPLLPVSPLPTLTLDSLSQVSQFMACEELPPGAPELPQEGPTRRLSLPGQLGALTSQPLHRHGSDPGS

SMILES	Ki [2] [µM]	microsomal CLint [3] [µL/min/mg]	IC50 [4] [µM]	other results
CN1CCC(Nc2nccc(-c3c[nH]nc3-c3ccc(Cl)cc3)n2)CC1	1.57	14	–	Ki [1]: 1.02 µM
CC(C)Nc1nccc(-c2cn[nH]c2C2CCCCO2)n1 (configuration not stated)	0.381	21	3.5	–
O[C@H]1CC[C@H](c2n[nH]cc2-c2ccnc(NC3CCCC3)n2)CC1	–	–	0.098	Activity [6]: 100; Activity [7]: 100
CC(C)Nc1nccc(-c2cn[nH]c2)n1	2.73	21	–	–
Cc1ccnc(S)n1	2.06	–	–	–
CC(C)Nc1nccc(-c2cn[nH]c2C2CCCNC2)n1 (configuration not stated)	0.53	14	–	–
Cc1ccc(-c2n[nH]cc2-c2ccnc(NC3CCN(C)CC3)n2)cn1	0.162	61	6.02	–
CC(C)Nc1nccc(-c2c[nH]nc2C2CCOCC2)n1	0.169	18	0.814	–
Clc1ccc(-c2n[nH]cc2-c2ccnc(NC3CC3)n2)cc1	0.151	96	0.84	–
C[C@H](CC(=O)O)Nc1nccc(-c2c[nH]nc2-c2ccc(Cl)cc2)n1	0.315	< 6	–	Papp B→A [27]: 13.2 ×10⁻⁶ cm/s; Papp A→B [28]: 0.3 ×10⁻⁶ cm/s

More lines, main results first:

Ki [2] [µM]	microsomal CLint [3] [µL/min/mg]	IC50 [4] [µM]	SMILES	other results
0.026	116	0.46	Clc1ccc(-c2n[nH]cc2-c2ccnc(NC3CCCC3)n2)cc1	logD [5]: 4.42
0.101	12	0.221	CC(C)Nc1nccc(-c2cn[nH]c2C2CCN(S(C)(=O)=O)CC2)n1	microsomal CLint [8]: 52 µL/min/mg
0.012	< 15	–	O[C@H]1CC[C@H](c2[nH]ncc2-c2ccnc(NC3CCCC3)n2)CC1	IC50 [9]: 15 µM; IC50 [10]: 13 µM; IC50 [11]: > 30 µM; IC50 [12]: > 30 µM; IC50 [13]: 0.59 µM; IC50 [14]: > 30 µM; IC50 [15]: > 30 µM; IC50 [16]: 1.2 µM; IC50 [17]: 1.9 µM; IC50 [18]: 0.86 µM; IC50 [19]: 0.92 µM; IC50 [20]: > 30 µM; IC50 [21]: 6.2 µM; IC50 [22]: > 30 µM; Ki [23]: 0.016 µM; IC50 [24]: 15 µM; IC50 [25]: > 30 µM; Ki [26]: 0.017 µM
0.027	156	1.1	Clc1ccc(-c2n[nH]cc2-c2ccnc(NC3CCCCC3)n2)cc1	–
0.043	34	0.357	CC(C)Nc1nccc(-c2c[nH]nc2C2CCCOC2)n1 (configuration not stated)	microsomal CLint [8]: 18 µL/min/mg
0.028	< 8	0.299	CC(=O)N[C@H]1CC[C@H](c2n[nH]cc2-c2ccnc(NC3CCCC3)n2)CC1	–
0.048	106	0.92	CC(C)Nc1nccc(-c2c[nH]nc2-c2ccc(Cl)cc2)n1	–
0.036	15	0.209	OC1CCCC(c2n[nH]cc2-c2ccnc(NC3CCCC3)n2)C1 (configuration not stated)	–
0.012	89	0.245	c1cc(-c2cn[nH]c2C2CCCOC2)nc(NC2CCCC2)n1 (configuration not stated)	–
0.009	11	0.114	CS(=O)(=O)N[C@H]1CC[C@H](c2n[nH]cc2-c2ccnc(NC3CCCC3)n2)CC1	–
